Drawing on patent publication US20240376084A1, “INHIBITORS OF ALPHA-HEMOLYSIN OF STAPHYLOCOCCUS AUREUS” (Helmholtz-Zentrum Fur Infektionsforschung GmbH, priority 2021, published 2024), this text covers EC50 and IC50 for 21 compounds.

As usually defined, the pEC50 is −log10 of the EC50, conventionally taken in molar units. A higher pEC50 goes with a small EC50. One may read the pIC50 as −log10 of the IC50, conventionally taken in molar units. A low value points to a large IC50.

For test [1], the target named is hemolysin alpha from Staphylococcus aureus (Staphylococcus aureus, UniProt P09616). Nature of the test: cell-based.
Sequence of hemolysin alpha from Staphylococcus aureus (P09616 27-319 limits assumed): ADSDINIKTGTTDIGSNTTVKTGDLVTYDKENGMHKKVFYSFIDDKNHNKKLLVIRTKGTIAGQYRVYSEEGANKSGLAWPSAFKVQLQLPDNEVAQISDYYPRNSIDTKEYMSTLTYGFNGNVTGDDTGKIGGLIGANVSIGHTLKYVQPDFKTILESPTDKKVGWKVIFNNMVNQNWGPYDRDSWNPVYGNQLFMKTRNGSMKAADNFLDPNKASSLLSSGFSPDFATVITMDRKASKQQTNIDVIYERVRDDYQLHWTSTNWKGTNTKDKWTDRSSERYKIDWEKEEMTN
In test [2] the target is S. aureus Alpha hemolysin (Staphylococcus aureus, UniProt P09616). Nature of the test: cell-based.
Sequence of S. aureus Alpha hemolysin (P09616 27-319 limits assumed): as above

pEC50, pIC50: −log10 of the molar value. Some results are limits rather than exact numbers.

With `Cc1cc2[nH]c(=O)c(=O)[nH]c2cc1S(=O)(=O)Nc1ccc(-c2cccc(OCCN(C)C)c2)c(Cl)c1` [Compound 331, N-[3-chloro-4-[3-[2-(dimethylamino)ethoxy]phenyl]phenyl]-7-methyl-2,3-dioxo-1,4-dihydroquinoxaline-6-sulfonamide], the pEC50 in test [1] and in test [2] (A549-LDH Assay activity) was 6.00 to 7.00 throughout.

Take `Cc1cc2[nH]c(=O)c(=O)[nH]c2cc1S(=O)(=O)Nc1ccc(-c2cccc(C#N)c2)c(Cl)c1` [Compound 318, N-[3-chloro-4-(3-cyanophenyl)phenyl]-7-methyl-2,3-dioxo-1,4-dihydroquinoxaline-6-sulfonamide]: the values for the pEC50 in test [1] and in test [2] (A549-LDH Assay activity) were 7.00 to 7.52 and 6.00 to 7.00, respectively.

For `Cc1ccc(-c2ccc(NS(=O)(=O)c3cc4[nH]c(=O)c(=O)[nH]c4cc3C)cc2Cl)o1` [Compound 69, N-(3-chloro-4-(5-methylfuran-2-yl)phenyl)-7-methyl-2,3-dioxo-1,2,3,4-tetrahydroquinoxaline-6-sulfonamide], in test [1], the pIC50 was 7.00 to 7.52. In addition, in test [2] (A549-LDH Assay activity), the pEC50 was 5.22 to 6.00.

As for `Cc1cc2[nH]c(=O)c(=O)[nH]c2cc1S(=O)(=O)Nc1cnc(-c2ccc(C#N)cc2)c(Cl)c1` [Compound 305, N-[5-chloro-6-(4-cyanophenyl)-3-pyridyl]-7-methyl-2,3-dioxo-1,4-dihydroquinoxaline-6-sulfonamide], the negative-log EC50 (pEC50) was 6.00 to 7.00 in test [1] and 7.00 to 7.52 in test [2] (A549-LDH Assay activity).

Compound `COc1cc(NS(=O)(=O)c2cc3[nH]c(=O)c(=O)[nH]c3cc2C)ccc1-c1ccccc1` [Compound 81, N-(2-methoxy-[1,1′-biphenyl]-4-yl)-7-methyl-2,3-dioxo-1,2,3,4-tetrahydroquinoxaline-6-sulfonamide] gave a negative-log IC50 (pIC50) in test [1] of 6.00 to 7.00. The pEC50 in test [2] (A549-LDH Assay activity) was 6.00 to 7.00.

In the case of `Cc1cc2[nH]c(=O)c(=O)[nH]c2cc1S(=O)(=O)Nc1ccc(-c2ccc(NC(=O)N(C)C)cc2)c(Cl)c1` [Compound 332, 3-[4-[2-chloro-4-[(7-methyl-2,3-dioxo-1,4-dihydroquinoxalin-6-yl)sulfonylamino]phenyl]phenyl]-1,1-dimethyl-urea], the pEC50 in test [1] and in test [2] (A549-LDH Assay activity) was 6.00 to 7.00 each time.

Consider `Cc1cc2[nH]c(=O)c(=O)[nH]c2cc1S(=O)(=O)Nc1ccc(C2CC2)cc1` [Compound 53, N-(4-cyclopropylphenyl)-7-methyl-2,3-dioxo-1,2,3,4-tetrahydroquinoxaline-6-sulfonamide], for which the pIC50 in test [1] was 7.00 to 7.52. In addition, in test [2] (A549-LDH Assay activity), the negative-log EC50 (pEC50) is > 7.52.

Regarding `Cc1cc2[nH]c(=O)c(=O)[nH]c2cc1S(=O)(=O)NC12CC(c3ccccc3)(C1)C2` [Compound 230, 7-methyl-2,3-dioxo-N-(3-phenylbicyclo[1.1.1]pentan-1-yl)-1,2,3,4-tetrahydroquinoxaline-6-sulfonamide], the negative-log EC50 (pEC50) in test [1] and in test [2] (A549-LDH Assay activity) was 6.00 to 7.00 throughout.

Turning to `Cc1cc2[nH]c(=O)c(=O)[nH]c2cc1S(=O)(=O)Nc1ccc(-c2ccc(F)cc2)c(C(F)(F)F)c1` [Compound 326, N-[4-(4-fluorophenyl)-3-(trifluoromethyl)phenyl]-7-methyl-2,3-dioxo-1,4-dihydroquinoxaline-6-sulfonamide], the negative-log EC50 (pEC50) in test [1] is > 7.52; in test [2] (A549-LDH Assay activity), 7.00 to 7.52.

For `Cc1cc2[nH]c(=O)c(=O)[nH]c2cc1S(=O)(=O)Nc1ccc(-c2ccncc2)c(Cl)c1` [Compound 37, N-(3-chloro-4-(pyridin-4-yl)phenyl)-7-methyl-2,3-dioxo-1,2,3,4-tetrahydroquinoxaline-6-sulfonamide], in test [1], the pIC50 is > 7.52. This compound also had a negative logarithm of the EC50 (pEC50) in test [2] (A549-LDH Assay activity) of 7.00 to 7.52.

In test [1], `CCc1ccccc1-c1c(C)cc(NS(=O)(=O)c2cc3[nH]c(=O)c(=O)[nH]c3cc2C)cc1C` [Compound 134, N-(2′-ethyl-2,6-dimethyl-[1,1′-biphenyl]-4-yl)-7-methyl-2,3-dioxo-1,2,3,4-tetrahydroquinoxaline-6-sulfonamide] showed a pIC50 of 6.00 to 7.00. In test [2] (A549-LDH Assay activity), the negative-log EC50 (pEC50) was 7.00 to 7.52.

As for `Cc1cc2[nH]c(=O)c(=O)[nH]c2cc1S(=O)(=O)Nc1cnc(-n2nccn2)c(Cl)c1` [Compound 385, N-[5-chloro-6-(triazol-2-yl)-3-pyridyl]-7-methyl-2,3-dioxo-1,4-dihydroquinoxaline-6-sulfonamide], the values for the negative logarithm of the EC50 (pEC50) in test [1] and in test [2] (A549-LDH Assay activity) were 5.46 to 6.00 and 6.00 to 7.00, respectively.

In the case of `Cc1cc2[nH]c(=O)c(=O)[nH]c2cc1S(=O)(=O)Nc1ccc(-c2cccc(P(C)(C)=O)c2)c(Cl)c1` [Compound 312, N-[3-chloro-4-(3-dimethylphosphorylphenyl)phenyl]-7-methyl-2,3-dioxo-1,4-dihydroquinoxaline-6-sulfonamide], the pEC50 in test [1] and in test [2] (A549-LDH Assay activity) was 6.00 to 7.00 each time.

Take `O=c1[nH]c2cc(Cl)c(S(=O)(=O)Nc3ccc(-c4ccccc4F)c(Cl)c3)cc2[nH]c1=O` [Compound 25, 7-chloro-N-(2-chloro-2′-fluoro-[1,1′-biphenyl]-4-yl)-2,3-dioxo-1,2,3,4-tetrahydroquinoxaline-6-sulfonamide]: the negative logarithm of the IC50 (pIC50) in test [1] was > 7.52. The pEC50 in test [2] (A549-LDH Assay activity) is 6.00 to 7.00.

As to `Cc1cc2[nH]c(=O)c(=O)[nH]c2cc1S(=O)(=O)Nc1ccc(-c2csc(C#N)c2)c(Cl)c1` [Compound 290, N-[3-chloro-4-(5-cyano-3-thienyl)phenyl]-7-methyl-2,3-dioxo-1,4-dihydroquinoxaline-6-sulfonamide], the negative-log EC50 (pEC50) was > 7.52 in test [1] and 7.00 to 7.52 in test [2] (A549-LDH Assay activity).

Regarding `Cc1cc2[nH]c(=O)c(=O)[nH]c2cc1S(=O)(=O)Nc1ccc(-c2ccc(F)cc2)c(Br)c1` [Compound 244, N-[3-bromo-4-(4-fluorophenyl)phenyl]-7-methyl-2,3-dioxo-1,4-dihydroquinoxaline-6-sulfonamide], the pEC50 in test [1] was > 7.52; in test [2] (A549-LDH Assay activity), 7.00 to 7.52.

In the case of `CN(C)c1cccc(-c2ccc(NS(=O)(=O)c3cc4[nH]c(=O)c(=O)[nH]c4cc3F)cc2Cl)c1` [Compound 34, N-(2-chloro-3′-(dimethylamino)-[1,1′-biphenyl]-4-yl)-7-fluoro-2,3-dioxo-1,2,3,4-tetrahydroquinoxaline-6-sulfonamide], the negative logarithm of the IC50 (pIC50) in test [1] was > 7.52. Moreover, the negative logarithm of the EC50 (pEC50) in test [2] (A549-LDH Assay activity) is 6.00 to 7.00.

Turning to `COc1cc2[nH]c(=O)c(=O)[nH]c2cc1S(=O)(=O)Nc1ccc(SC(F)(F)F)cc1` [Compound 399, 7-methoxy-2,3-dioxo-N-[4-(trifluoromethylsulfanyl)phenyl]-1,4-dihydroquinoxaline-6-sulfonamide], the negative-log EC50 (pEC50) in test [1] is 5.46 to 6.00; in test [2] (A549-LDH Assay activity), 6.00 to 7.00.

In the case of `COc1ccc(-c2ccc(NS(=O)(=O)c3cc4[nH]c(=O)c(=O)[nH]c4cc3C)cc2Cl)cc1` [Compound 246, N-[3-chloro-4-(4-methoxyphenyl)phenyl]-7-methyl-2,3-dioxo-1,4-dihydroquinoxaline-6-sulfonamide], the pEC50 in test [1] is > 7.52; in test [2] (A549-LDH Assay activity) it was 7.00 to 7.52.

As for `CCOC(=O)c1ccccc1-c1ccc(NS(=O)(=O)c2cc3[nH]c(=O)c(=O)[nH]c3cc2C)cc1` [Compound 120, ethyl 4′-((7-methyl-2,3-dioxo-1,2,3,4-tetrahydroquinoxaline)-6-sulfonamido)-[1,1′-biphenyl]-2-carboxylate], in test [1], the negative logarithm of the IC50 (pIC50) is 6.00 to 7.00. The compound also showed a negative logarithm of the EC50 (pEC50) in test [2] (A549-LDH Assay activity) of 5.22 to 6.00.

As for `O=c1[nH]c2ccc(S(=O)(=O)Nc3ccc(OC(F)(F)F)cc3)cc2[nH]c1=O` [drawing 469 (R^2 = H), reference compound], the pEC50 was 6.54 in test [1] and 6.62 in test [2] (LDH Assay EC50).
